Reference: ChEMBL document CHEMBL1201862, “PubChem BioAssay data set” (2004)
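How tested: cells in 96-well plates exposed to compound for 48 hours at five concentrations. The concentration for 50% growth inhibition is given as GI50.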 Activity calls are given as the source filed them. Cut-off read from the data, not from the text of the source: active = GI50 up to about 1.1 µM and inactive = higher.

Legend:
Assay in all cases: NCI-60 cell line screen, 48 h
SK-OV-3 = test system: SK-OV-3
COLO 205 = test system: COLO 205
HCC 2998 = test system: HCC 2998
TK-10 = test system: TK-10
PC-3 = test system: PC-3
RPMI-8226 = test system: RPMI-8226
LOX IMVI = test system: LOX IMVI
U-251 = test system: U-251
HOP-62 = test system: HOP-62
OVCAR-8 = test system: OVCAR-8
NCI/ADR-RES = test system: NCI/ADR-RES
SF-539 = test system: SF-539
HT-29 = test system: HT-29
KM12 = test system: KM12
OVCAR-3 = test system: OVCAR-3
OVCAR-5 = test system: OVCAR-5
SNB-75 = test system: SNB-75
UO-31 = test system: UO-31
RXF 393 = test system: RXF 393
HL-60 = test system: HL-60

Measured: GI50

COc1ccc2c(c1)OCc1c-2oc2ccccc2c1=O
inactive: SK-OV-3 47.5 µM | COLO 205 > 100 µM | HCC 2998 > 100 µM | TK-10 > 100 µM | PC-3 > 100 µM | RPMI-8226 > 100 µM | LOX IMVI > 100 µM | U-251 35.8 µM | HOP-62 53.7 µM | OVCAR-8 > 100 µM | NCI/ADR-RES > 100 µM | SF-539 40.1 µM | HT-29 > 100 µM | KM12 > 100 µM | OVCAR-3 > 100 µM | OVCAR-5 > 100 µM | SNB-75 34.5 µM | UO-31 > 100 µM

CCOC(=O)C1=CC(C)(C(=O)OCC)Nc2c(nc(SC)n(C)c2=O)N1 (centres undefined)
inactive: SK-OV-3 > 10 µM | COLO 205 > 10 µM | HCC 2998 > 10 µM | TK-10 > 10 µM | PC-3 > 10 µM | RPMI-8226 > 10 µM | LOX IMVI > 10 µM | U-251 > 10 µM | HOP-62 > 10 µM | OVCAR-8 > 10 µM | NCI/ADR-RES > 10 µM | SF-539 > 10 µM | HT-29 > 10 µM | KM12 > 10 µM | OVCAR-3 > 10 µM | OVCAR-5 > 10 µM | SNB-75 > 10 µM | UO-31 > 10 µM

Nc1ccccc1C#CC(=O)c1cccc(C(F)(F)F)c1
inactive: SK-OV-3 15.3 µM | COLO 205 1.89 µM | TK-10 17.2 µM | PC-3 3.41 µM | RXF 393 2.25 µM | RPMI-8226 2.3 µM | LOX IMVI 1.46 µM | U-251 1.95 µM | HOP-62 7.24 µM | NCI/ADR-RES 4.89 µM | SF-539 3.18 µM | HT-29 4.16 µM | HL-60 6.07 µM | KM12 13.9 µM | OVCAR-3 3.78 µM | OVCAR-5 6.59 µM | SNB-75 14.1 µM | UO-31 1.29 µM

Nc1ccc(Nc2cc(=O)[nH]c(=O)[nH]2)cc1Cl
inactive: SK-OV-3 > 100 µM | COLO 205 > 100 µM | HCC 2998 > 100 µM | TK-10 > 100 µM | PC-3 > 100 µM | RPMI-8226 > 100 µM | LOX IMVI > 100 µM | U-251 > 100 µM | OVCAR-8 > 100 µM | NCI/ADR-RES > 100 µM | SF-539 > 100 µM | HT-29 > 100 µM | HL-60 > 100 µM | OVCAR-3 > 100 µM | OVCAR-5 > 100 µM | UO-31 > 100 µM

Cc1cc(N(C)C)ccc1/N=N/c1ccc2ncccc2c1
inactive: SK-OV-3 > 100 µM | COLO 205 33.9 µM | TK-10 25.6 µM | PC-3 59.2 µM | RXF 393 > 100 µM | RPMI-8226 20.2 µM | U-251 > 100 µM | OVCAR-8 > 100 µM | NCI/ADR-RES > 100 µM | SF-539 > 100 µM | HT-29 35.3 µM | HL-60 19.9 µM | KM12 66.7 µM | OVCAR-5 > 100 µM | SNB-75 25.4 µM | UO-31 > 100 µM

O=S(=O)(O)c1cc(O)c2c(O)c(/N=N/c3cccc4ccccc34)c(S(=O)(=O)O)cc2c1
inactive: SK-OV-3 > 100 µM | COLO 205 > 100 µM | TK-10 > 100 µM | PC-3 > 100 µM | RXF 393 > 100 µM | RPMI-8226 > 100 µM | LOX IMVI > 100 µM | U-251 > 100 µM | HOP-62 > 100 µM | OVCAR-8 > 100 µM | NCI/ADR-RES > 100 µM | SF-539 > 100 µM | HT-29 > 100 µM | KM12 > 100 µM | OVCAR-3 > 100 µM | OVCAR-5 > 100 µM | SNB-75 > 100 µM | UO-31 > 100 µM
